Measurements reported in US20090118375A1, “Optically active phthalamides” (priority 2004, published 2009).
Values belong to the compound of their own block, whether it stands above or below them.

Assays:
[1] = test system: Lucilia cuprina 1st instar larvae; experiment: Blowfly larval assay (Lucilia cuprina); type: in vivo; settings: 100 ppm
Method: (§1) 10 mg active compound are dissolve in 0.5 ml dimethyl sulphoxide. Serial dilutions are made to obtain the desired rates.
Approximately 20 Lucilia cuprina 1st instar larvae are transferred into a test tube containing 1 cm^3 of minced horse meat and 0.5 ml aqueous dilution of test compound. After 48 hrs percentage of larval mortality are recorded.
100% efficacy=all larvae are killed 0% efficacy=normally developed larvae after 48 hrs

[2] = test system: Boophilus microplus (SP-resistant Parkhurst strain); experiment: Boophilus microplus test (INJ), resistant cattle tick, injection method; type: in vivo; settings: concentration of active compound 20 μM, injection into abdomen of adult satiated females
Method: Test with Resistant Monoxenic Cattle Tick/SP-Resistant Parkhurst Strain Injection Method
Boophilus microplus (INJ)
10 mg active compound are dissolve in 0.5 ml Dimethylsulfoxid. Serial dilutions are made to obtain the desired rates.
The test is carried out in 5 replications. 1 μl of the solutions is injected into the abdomen, and the animals are transferred to dishes and kept in a climate-controlled room. After 7 days, activity is checked by examination for deposition of fertile eggs. Eggs whose fertility is not externally visible are stored in glass tubes in a controlled-environment cabinet until the larvae have hatched after ca. 24 days. An activity of 100% denotes that none of the ticks has laid fertile eggs.

Musca domestica = experiment: Housefly assay (Musca domestica); type: in vivo; settings: 100 ppm, adult flies
Method: as §1
Prior to the assay, a piece of kitchen sponge (ca. Ø 1.5 cm) is soaked with 0.8 ml of sugar solution and 0.2 ml of aqueous compound dilution and is placed into a container (4×4×2 cm). 10 adult Musca domestica flies (WHO/N strain) are anaesthetized by CO2 and also placed into the container. The container is closed with a perforated lid. […]
100% efficacy=all flies are killed 0% efficacy=no flies are killed

Myzus persicae = experiment: Myzus test (spray application); type: in vivo; settings: topical, 120 h, spray on Chinese cabbage leaves, after 5 d, read-out: Kill rate in % after 5 d
Method: Myzus Test (Spray Application)
(§2) To produce a suitable preparation of active compound, 1 part by weight of active compound is mixed with the stated amounts of solvent and emulsifier, and the concentrate is diluted with emulsifier-containing water to the desired concentration.
Chinese cabbage leaves (Brassica pekinensis), which are infested by the green peach aphid (Myzus persicae), are treated by being sprayed with the preparation of the active compound of the desired concentration.
(§3) After the specified period of time, the mortality in % is determined. 100% means that all the […] have been killed; 0% means that none of the […] have been killed.

[3] = log P by HPLC on reversed-phase column (EEC Directive 79/831 Annex V.A8); type: physicochemical; settings: reversed-phase C18 HPLC column, pH 2.3, 43° C.
Method: The log P values given in the preparation examples and tables above are determined in accordance with EEC Directive 79/831 Annex V.A8 by HPLC (High Performance Liquid Chromatography) on a reversed-phase column (C 18). Temperature: 43° C.
In the acidic range, determination is carried out at pH 2.3 using the mobile phases 0.1% aqueous phosphoric acid and acetonitrile; linear gradient from 10% acetonitrile to 90% acetonitrile (in the tables marked with a)).
Calibration is carried out using unbranched alkan-2-ones (of 3 to 16 carbon atoms) with known lop P values (determination of the log P values by the retention times using linear interpolation between two successive alkanones).

Spodoptera frugiperda = Spodoptera frugiperda test (spray application); type: in vivo; settings: topical, 168 h, 20 g/ha, spray on maize leaf slices, after 7 d, read-out: Kill rate in % after 7 d
Method: Spodoptera frugiperda Test (Spray Application)
as §2
Maize leave slices (Zea mays) are treated by being sprayed with the preparation of the active compound of the desired concentration and are infested with caterpillars of the fall army worm (Spodoptera frugiperda) after the leaves have dried.
as §3

Plutella xylostella = experiment: Plutella test; type: in vivo; settings: 20 ppm, cabbage leaves dipped
Method: as §2
Cabbage leaves (Brassica oleracea) are treated by being dipped into the preparation of active compound of the desired concentration and are populated with caterpillars of the diamondback moth (Plutella xylostella) while the leaves are still moist.
After the desired period of time, the kill in % is determined. 100% means that all caterpillars have been killed; 0% means that none of the caterpillars have been killed.

Tetranychus urticae = experiment: Tetranychus test (OP-resistant/spray application); type: in vivo; settings: 100 g/ha, spray on bean leaf slices
Method: Tetranychus test (OP-Resistant/Spray Application)
as §2
Bean leave slices (Phaseolus vulgaris), which are infested with all stages of the two-spotted spider mite (Tetranychus urticae), are treated by being sprayed with the preparation of the active compound of the desired concentration.
as §3

Compound: CCSC[C@H](C)NC(=O)c1c(I)cccc1C(=O)Nc1ccc(C(F)(C(F)(F)F)C(F)(F)Br)cc1C (some centres unmarked) [Compound 1]
Kill rate in % after 2 d [1]: 100%

Compound: CCS(=O)(=O)C[C@H](C)NC(=O)c1c(I)cccc1C(=O)Nc1ccc(C(F)(C(F)F)C(F)(F)F)cc1F (some centres unmarked) [Compound 36]
Kill rate in % after 2 d [1]: 100%

Compound: C[C@@H](CS(C)(=O)=O)NC(=O)c1c(I)cccc1C(=O)Nc1ccc(C(F)(C(F)F)C(F)(F)F)cc1F (some centres unmarked) [Compound 32]
Kill rate in % after 2 d [1]: 100%
Kill rate in % after 4 d (Musca domestica): 100%

Compound: C[C@@H](CS(C)(=O)=O)NC(=O)c1c(I)cccc1C(=O)Nc1ccc(C(C(F)F)C(F)(F)F)cc1Br (some centres unmarked) [Compound 31]
Kill rate in % after 4 d (Musca domestica): 100%
pest or weed control at 100 g/ha (Myzus persicae): 100%

Compound: Cc1cc(C(F)(C(F)F)C(F)(F)F)ccc1N (centres unmarked) [4-(1-Difluoromethyl-1,2,2,2-tetrafluoro-ethyl)-2-methyl-phenylamine]
chromatographic logP [3]: 2.74

Compound: CCS(=O)(=O)C[C@H](C)NC(=O)c1c(Br)cccc1C(=O)Nc1ccc(C(F)(C(F)F)C(F)(F)F)cc1Br (some centres unmarked) [Compound 69]
Kill rate in % after 2 d [1]: 100%
pest or weed control at 20 g/ha (Spodoptera frugiperda): 100%

Compound: CSC[C@H](C)NC(=O)c1c(Br)cccc1C(=O)Nc1ccc(C(F)(C(F)F)C(F)(F)F)cc1Br (some centres unmarked) [Compound 67]
Kill rate in % after 7 d (Plutella xylostella): 100%
melting point: 138 to 142 °C

Compound: Cc1cc(C(F)(C(F)F)C(F)(F)F)ccc1NC(=O)c1cccc(Cl)c1C(=O)N[C@@H](C)CS(C)(=O)=O (some centres unmarked) [Compound 44]
Kill rate in % after 7 d (Plutella xylostella): 100%
Kill rate in % after 5 d (Tetranychus urticae): 80%

Compound: CCSC[C@H](C)NC(=O)c1c(I)cccc1C(=O)Nc1ccc(C(C(F)F)C(F)(F)F)cc1C (some centres unmarked) [Compound 4]
Kill rate in % after 7 d [2]: 100%
Kill rate in % after 2 d [1]: 100%

Compound: CCS(=O)(=O)C[C@H](C)NC(=O)c1c(I)cccc1C(=O)Nc1ccc(C(C(F)F)C(F)(F)F)cc1F (some centres unmarked) [Compound 37]
Kill rate in % after 2 d [1]: 100%

Compound: CSC[C@H](C)NC(=O)c1c(Cl)cccc1C(=O)Nc1ccc(C(C(F)F)C(F)(F)F)cc1Cl (some centres unmarked) [Compound 42]
Kill rate in % after 5 d (Tetranychus urticae): 80%

Compound: CSC[C@H](C)NC(=O)c1c(Cl)cccc1C(=O)Nc1ccc(C(F)(C(F)(F)F)C(F)(F)Br)cc1C (some centres unmarked) [Compound 38]
Kill rate in % after 7 d (Plutella xylostella): 100%
melting point: 184 to 186 °C

Compound: CCS(=O)(=O)C[C@H](C)NC(=O)c1c(I)cccc1C(=O)Nc1ccc(C(F)(C(F)F)C(F)(F)F)cc1Cl (some centres unmarked) [Compound 25]
Kill rate in % after 2 d [1]: 90%

Compound: CCSC[C@H](C)NC(=O)c1c(I)cccc1C(=O)Nc1ccc(C(F)(C(F)F)C(F)(F)F)cc1C (some centres unmarked) [Compound 5]
melting point: 105 °C
Kill rate in % after 7 d [2]: 100%
Kill rate in % after 4 d (Musca domestica): 100%

Compound: CSC[C@H](C)N=C1OC(=O)c2cccc(I)c21 [4-Iodo-3-[(S)-1-methyl-2-methylsulfanyl-ethylimino]-3H-isobenzofuran-1-one]
chromatographic logP [3]: 3.87

Compound: Cc1cc(C(C(F)F)C(F)(F)F)ccc1N (centres unmarked) [4-(1-Difluoromethyl-2,2,2-trifluoro-ethyl)-2-methyl-phenylamine]
chromatographic logP [3]: 2.02

Further lines, with some results ahead:

melting point: 144 to 147 °C
Compound: C[C@@H](CS(C)(=O)=O)NC(=O)c1c(I)cccc1C(=O)Nc1ccc(C(C(F)F)C(F)(F)F)cc1F (some centres unmarked) [Compound 33]
Kill rate in % after 7 d [2]: 100%
Kill rate in % after 4 d (Musca domestica): 100%

melting point: 122 °C
Compound: CCS(=O)(=O)C[C@H](C)NC(=O)c1c(I)cccc1C(=O)Nc1ccc(C(C(F)F)C(F)(F)F)cc1Br (some centres unmarked) [Compound 35]
Kill rate in % after 4 d (Musca domestica): 100%

melting point: 116 to 120 °C
Compound: C[C@@H](CS(C)(=O)=O)NC(=O)c1c(I)cccc1C(=O)Nc1ccc(C(C(F)F)C(F)(F)F)cc1Cl (some centres unmarked) [Compound 28]
Kill rate in % after 4 d (Musca domestica): 100%

melting point: 160 °C
Compound: CCSC[C@H](C)NC(=O)c1c(I)cccc1C(=O)Nc1ccc(C(C(F)F)C(F)(F)F)cc1Br (some centres unmarked) [Compound 24]
Kill rate in % after 7 d [2]: 100%

melting point: 144 °C
Compound: CCSC[C@H](C)NC(=O)c1c(I)cccc1C(=O)Nc1ccc(C(C(F)F)C(F)(F)F)cc1F (some centres unmarked) [Compound 21]
Kill rate in % after 4 d (Musca domestica): 100%

melting point: 184 °C
Compound: CSC[C@H](C)NC(=O)c1c(I)cccc1C(=O)Nc1ccc(C(C(F)F)C(F)(F)F)cc1C (some centres unmarked) [Compound 11]
Kill rate in % after 7 d (Plutella xylostella): 100%

melting point: 165 °C
Compound: CCSC[C@H](C)NC(=O)c1c(I)cccc1C(=O)Nc1ccc(C(C(F)F)C(F)(F)F)cc1Cl (some centres unmarked) [Compound 23]
Kill rate in % after 7 d [2]: 100%

melting point: 100 °C
Compound: CCSC[C@H](C)NC(=O)c1c(Br)cccc1C(=O)Nc1ccc(C(C(F)F)C(F)(F)F)cc1Cl (some centres unmarked) [Compound 54]
Kill rate in % after 7 d (Plutella xylostella): 100%

melting point: 124 °C
Compound: Cc1cc(C(F)(C(F)F)C(F)(F)F)ccc1NC(=O)c1cccc(I)c1C(=O)N[C@@H](C)CS(C)(=O)=O (some centres unmarked) [Compound 18]
Kill rate in % after 7 d (Plutella xylostella): 100%
